Source: patent US10399932B2, “Inhibitors of indoleamine-2,3-dioxygenase for the treatment of cancer” (BRISTOL-MYERS SQUIBB COMPANY, priority 2015, dated 2019)

What follows are molecules tested against human IDO1 (Homo sapiens, UniProt P14902) (assay: Assessment of human IDO-1 inhibitory activity in HEK cells (human IDO1/HEK293 cells, Ehrlich reagent, absorbance at 490 nm)). Conditions: In Vitro Potency in the HEK Human IDO-1 Cellular Assay.
Format: cell-based
Parameters: expressed in transfected cells
Protocol: Exemplary compounds were tested for inhibition of IDO activity.
HEK293 cells were transfected with a pCDNA-based mammalian expression vector harboring human IDO1 cDNA (NM 002164.2) by electroporation. They were cultured in medium (DMEM with 10% FBS) containing 1 mg/ml G418 for two weeks. Clones of HEK293 cells that stably expressed human IDO1 protein were selected and expanded for IDO inhibition assay.
The human IDO1/HEK293 cells were seeded at 10,000 cells per 50 μL per well with RPMI/phenol red free media contains 10% FBS in a 384-well black wall clear bottom tissue culture plate (Matrix Technologies LLC) 100 nL of certain concentration of compound was then added to each well using ECHO liquid handling systems. The cells were incubated for 20 hours in 37° C. incubator with 5% CO2.
The compound treatments were stopped by adding trichloroacetic acid (Sigma-Aldrich) to a final concentration at 0.2%. The cell plate was further incubated at 50° C. for 30 minute. The equal volume supernatant (20 μL) and 0.2% (w/v) Ehrlich reagent (4-dimethylaminobenzaldehyde, Sigma-Aldrich) in glacial acetic acid were mixed in a new clear bottom 384-well plate. This plate was then incubated at room temperature for 30 minute. The absorbance at 490 nm was measured on Envision plate reader.
Compound IC50 values were calculated using the counts of 500 nM of a reference standard treatment as one hundred percent inhibition, and counts of no compound but DMSO treatment as zero percent inhibition.

Sequence of human IDO1 (P14902 whole entry): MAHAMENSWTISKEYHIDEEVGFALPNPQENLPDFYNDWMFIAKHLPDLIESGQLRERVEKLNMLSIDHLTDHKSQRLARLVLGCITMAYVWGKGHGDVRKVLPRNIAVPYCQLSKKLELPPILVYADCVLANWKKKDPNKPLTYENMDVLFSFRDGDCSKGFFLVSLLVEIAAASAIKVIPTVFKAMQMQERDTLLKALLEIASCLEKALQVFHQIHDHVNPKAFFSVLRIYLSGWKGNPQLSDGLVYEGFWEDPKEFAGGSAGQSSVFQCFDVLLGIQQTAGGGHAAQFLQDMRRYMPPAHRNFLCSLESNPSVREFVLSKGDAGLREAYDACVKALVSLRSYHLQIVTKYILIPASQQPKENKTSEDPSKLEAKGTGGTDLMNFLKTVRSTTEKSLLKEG

IC50 [nM] | SMILES
< 50 | CCC(CC(=O)O)c1ccc(N(CC(C)C)C2CCCCC2)c(Nc2ccc3c(c2)OCCO3)c1 (single isomer, unassigned) [Example 317, 3-(4-(cyclohexyl(isobutyl)amino)-3-((2,3-dihydrobenzo[b][1,4]dioxin-6-yl)amino)phenyl)pentanoic acid]
< 50 | CCN(c1ccc([C@@H](COC)CC(=O)O)cc1Nc1ccc2c(c1)OC(F)(F)O2)C1CCOCC1 (single isomer, unassigned) [Example 378]
< 50 | CCOc1ccc(NC(=O)Nc2cc([C@@H](CC)CC(=O)O)ccc2N(CC)C2CCOCC2)cc1 (single isomer, unassigned) [Example 491]
< 5 | CCOc1ccc(Nc2cc([C@H](CC)CC(=O)O)ccc2N(CC)C2CCOCC2)cc1 (single isomer, unassigned) [Example 514]
< 50 | CCN(c1ccc(C(CC(=O)O)c2ccccc2)cc1Nc1ccc(Cl)cc1F)C1CCOCC1 (single isomer, unassigned) [Example 582, 3-(3-((4-chloro-2-fluorophenyl)amino)-4-(ethyl(tetrahydro-2H-pyran-4-yl)amino)phenyl)-3-phenylpropanoic acid]
> 50 | CCN(c1ccc(C(CC(=O)O)c2ccccc2)cc1Nc1ccc2nc(C)sc2c1)C1CCOCC1 (single isomer, unassigned) [Example 589, 3-(4-(ethyl(tetrahydro-2H-pyran-4-yl)amino)-3-((2-methylbenzo[d]thiazol-6-yl)amino)phenyl)-3-phenylpropanoic acid]
< 5 | CCN(c1ccc(C(CC(=O)O)c2ccccc2)cc1Nc1ccc(C#N)cc1)C1CCOCC1 (single isomer, unassigned) [Example 591, 3-(3-((4-cyanophenyl)amino)-4-(ethyl(tetrahydro-2H-pyran-4-yl)amino)phenyl)-3-phenylpropanoic acid]
< 50 | CCN(c1ccc(C(CC(=O)O)c2ccccc2)cc1Nc1ccc(OC(F)F)cc1)C1CCOCC1 (single isomer, unassigned) [Example 593, 3-(3-((4-(difluoromethoxy)phenyl)amino)-4-(ethyl(tetrahydro-2H-pyran-4-yl)amino)phenyl)-3-phenylpropanoic acid]
> 50 | CCN(c1ccc(C(CC(=O)O)c2ccccc2)cc1NC(=O)Nc1ccc(OC)cc1F)C1CCOCC1 (single isomer, unassigned) [Example 596, 3-(4-(ethyl(tetrahydro-2H-pyran-4-yl)amino)-3-(3-(2-fluoro-4-methoxyphenyl)ureido)phenyl)-3-phenylpropanoic acid]
< 5 | CCOc1cc(Nc2cc(C(CC)CC(=O)O)ccc2N(CC(C)C)C2CCCCC2)ccc1Cl (single isomer, unassigned) [Example 646, 3-(3-((4-chloro-3-ethoxyphenyl)amino)-4-(cyclohexyl(isobutyl)amino)phenyl)pentanoic acid]
< 5 | CCC(CC(=O)O)c1ccc(N(CC(C)C)C2CCCCC2)c(Nc2ccc(Cl)c(OCC(F)F)c2)c1 (single isomer, unassigned) [Example 650, 3-(3-((4-chloro-3-(2,2-difluoroethoxy)phenyl)amino)-4-(cyclohexyl(isobutyl)amino)phenyl)pentanoic acid]
< 50 | CCC(CC(=O)O)c1ccc(N(CC(C)C)C2CCCCC2)c(Nc2ccc(Cl)c(OCC(F)(F)F)c2)c1 (single isomer, unassigned) [Example 651, 3-(3-((4-chloro-3-(2,2,2-trifluoroethoxy)phenyl)amino)-4-(cyclohexyl(isobutyl)amino)phenyl)pentanoic acid]
< 50 | CCC(CC(=O)O)c1ccc(N(CC(C)C)C2CCCCC2)c(Nc2ccc(Cl)c(OCC3CC3)c2)c1 (single isomer, unassigned) [Example 652, 3-(3-((4-chloro-3-(cyclopropylmethoxy)phenyl)amino)-4-(cyclohexyl(isobutyl)amino)phenyl)pentanoic acid]
< 50 | CCOc1cc(Nc2cc(C(CC)CC(=O)O)ccc2N(CC(C)C)C2CCCCC2)ccc1Cl (single isomer, unassigned) [Example 653, 3-(3-((4-chloro-3-ethoxyphenyl)amino)-4-(cyclohexyl(isobutyl)amino)phenyl)pentanoic acid]
< 5 | CCC(CC(=O)O)c1ccc(N(CC(C)C)C2CCCCC2)c(Nc2cnc(OC(C)C)nc2)c1 (single isomer, unassigned) [Example 655, 3-(4-(cyclohexyl(isobutyl)amino)-3-((2-isopropoxypyrimidin-5-yl)amino)phenyl)pentanoic acid]
> 50 | COCC(CC(=O)O)c1ccc(N(CC2CC2)C2CCOCC2)c(NC(=O)Nc2ccc(C)cc2)c1 (single isomer, unassigned) [Example 677, 3-(4-((Cyclopropylmethyl)(tetrahydro-2H-pyran-4-yl)amino)-3-(3-(p-tolyl)ureido)phenyl)-4-methoxybutanoic acid]
< 5 | CCC(CC(=O)O)c1ccc(N(CC2CC2)C2CCOCC2)c(NC(=O)Nc2ccc(Cl)cc2F)c1 (single isomer, unassigned) [Example 699, 3-(3-(3-(4-Chloro-2-fluorophenyl)ureido)-4-((cyclopropylmethyl)(tetrahydro-2H-pyran-4-yl)amino)phenyl)pentanoic acid]
> 50 | CCC(CC(=O)O)c1ccc(N(CC2CC2)C2CCOCC2)c(NC(=O)Nc2cc(C)on2)c1 (single isomer, unassigned) [Example 700, 3-(4-((Cyclopropylmethyl)(tetrahydro-2H-pyran-4-yl)amino)-3-(3-(5-methylisoxazol-3-yl)ureido)phenyl)pentanoic acid]
< 50 | CCC(CC(=O)O)c1ccc(N(CC2CC2)C2CCOCC2)c(Nc2ccc3nc(C)sc3c2)c1 (single isomer, unassigned) [Example 707, 3-(4-((Cyclopropylmethyl)(tetrahydro-2H-pyran-4-yl)amino)-3-((2-methylbenzo[d]thiazol-6-yl)amino)phenyl)pentanoic acid]
< 5 | CCC(CC(=O)O)c1ccc(N(CC2CC2)C2CCOCC2)c(Nc2ccc(Cl)cc2)c1 (single isomer, unassigned) [Example 708, 3-(3-((4-chlorophenyl)amino)-4-((cyclopropylmethyl)(tetrahydro-2H-pyran-4-yl)amino)phenyl)pentanoic acid]
< 5 | CCC(CC(=O)O)c1ccc(N(CC2CC2)C2CCOCC2)c(Nc2cnc(OC)nc2)c1 (single isomer, unassigned) [Example 709, 3-(4-((cyclopropylmethyl)(tetrahydro-2H-pyran-4-yl)amino)-3-((2-methoxypyrimidin-5-yl)amino)phenyl)pentanoic acid]
< 5 | CCC(CC(=O)O)c1ccc(N(CC2CC2)C2CCOCC2)c(Nc2ccc3c(c2)OC(F)(F)O3)c1 (single isomer, unassigned) [Example 710, 3-(4-((cyclopropylmethyl)(tetrahydro-2H-pyran-4-yl)amino)-3-((2,2-difluorobenzo[d][1,3]dioxol-5-yl)amino)phenyl)pentanoic acid]
< 5 | CCOc1ncc(Nc2cc(C(CC)CC(=O)O)ccc2N(CC2CC2)C2CCOCC2)cn1 (single isomer, unassigned) [Example 711, 3-(4-((cyclopropylmethyl)(tetrahydro-2H-pyran-4-yl)amino)-3-((2-ethoxypyrimidin-5-yl)amino)phenyl)pentanoic acid]
